{"source": "patent US10849878B2", "about": "(OBSHCHESTVO S OGRANICHENNOY OTVETSTVENNOSTYU “NORMOFARM”, priority 2015, dated 2020)", "key": {"[1]": {"tested_on": "rats", "conditions": "comparison salts; cited from earlier work"}, "[2]": {"conditions": "in normal settings; cited from earlier work"}, "[3]": {"tested_on": "rats", "assay": "Porsolt helplessness test", "type": "in vivo, rat"}, "[4]": {"conditions": "7 days after the dosing, LiAsc, LiCa 5 mg/kg, phenazepam 0.25 mg"}, "[5]": {"conditions": "7 days after the drug withdrawal, 5 mg/kg"}, "[6]": {"conditions": "28 days after the dosing, LiAsc, LiCa 5 mg/kg, phenazepam 0.25 mg"}, "[7]": {"conditions": "28 days after the drug withdrawal, 5 mg/kg"}}}
{"molecule": "Lithium nitrate trihydrate", "values": [{"measurement": "LD50, mg/kg in rats", "setting": "[1]", "value": 1400, "unit": "mg/kg"}]}
{"molecule": "[Cl-].[Li+]", "note": "[Lithium chloride]", "values": [{"measurement": "LD50, mg/kg in rats", "setting": "[1]", "value": 970, "unit": "mg/kg"}]}
{"molecule": "CC(O)C(=O)[O-].[Li+]", "note": "(stereo not drawn) [Lithium lactate]", "values": [{"measurement": "LD50, mg/kg in rats", "setting": "[1]", "value": 2100, "unit": "mg/kg"}]}
{"molecule": "O=C([O-])CCC(=O)[O-].[Li+].[Li+]", "note": "[Lithium succynate]", "values": [{"measurement": "LD50, mg/kg in rats", "setting": "[1]", "value": 2416, "unit": "mg/kg"}]}
{"molecule": "[Li+].[O]=[Ta](=[O])[O-]", "note": "[Lithium metatantalate]", "values": [{"measurement": "LD50, mg/kg in rats", "setting": "[1]", "value": 750, "unit": "mg/kg"}]}
{"molecule": "O=C([O-])c1cccnc1.[Li+]", "note": "[Lithium nicotinate]", "values": [{"measurement": "LD50, mg/kg in rats", "setting": "[1]", "value": 2200, "unit": "mg/kg"}]}
{"molecule": "O=C1O[C@H]([C@@H](O)CO)C(O)=C1O", "note": "[ascorbic acid]", "values": [{"measurement": "plasma concentration", "setting": "[2]", "value": "10000 to 20000", "unit": "ng/mL"}]}
{"molecule": "O=C([O-])c1ccccc1.[Li+]", "note": "[Lithium benzoate]", "values": [{"measurement": "LD50, mg/kg in rats", "setting": "[1]", "value": 1200, "unit": "mg/kg"}]}
{"molecule": "O=C([O-])[O-].[Li+].[Li+]", "note": "[Lithium carbonate]", "values": [{"measurement": "Adrenalin", "setting": "[3]; [4]", "value": "24.9 ± 9.5", "unit": "µg/L"}, {"measurement": "Duration of activity", "setting": "[3]; [4]", "value": "100.9 ± 64.9", "unit": "s"}, {"measurement": "Duration of immobility", "setting": "[3]; [4]", "value": "499.1 ± 53.0", "unit": "s"}, {"measurement": "Eosinophils (Dunger method) in mm^3", "setting": "[3]; [4]", "value": "312.6 ± 68.1", "unit": "in mm^3"}, {"measurement": "Noradrenalin", "setting": "[3]; [4]", "value": "69.3 ± 35.2", "unit": "µg/L"}, {"measurement": "Number of gastric ulcers", "setting": "[3]; [4]", "value": "5.9 ± 2.1"}, {"measurement": "Adrenalin", "setting": "[3]; [5]", "value": "29.6 ± 13.6", "unit": "µg/L"}, {"measurement": "Duration of activity", "setting": "[3]; [5]", "value": "91.8 ± 43.9", "unit": "s"}, {"measurement": "Duration of immobility", "setting": "[3]; [5]", "value": "507.9 ± 101.4", "unit": "s"}, {"measurement": "Eosinophils (Dunger method) in mm^3", "setting": "[3]; [5]", "value": "299.3 ± 93.5", "unit": "in mm^3"}, {"measurement": "Noradrenalin", "setting": "[3]; [5]", "value": "80.6 ± 29.7", "unit": "µg/L"}, {"measurement": "Number of gastric ulcers", "setting": "[3]; [5]", "value": "9.9 ± 3.7"}, {"measurement": "Adrenalin", "setting": "[3]; [6]", "value": "36.7 ± 9.6", "unit": "µg/L"}, {"measurement": "Duration of activity", "setting": "[3]; [6]", "value": "90.8 ± 67.3", "unit": "s"}, {"measurement": "Duration of immobility", "setting": "[3]; [6]", "value": "508.9 ± 107.2", "unit": "s"}, {"measurement": "Eosinophils (Dunger method) in mm^3", "setting": "[3]; [6]", "value": "301.8 ± 102.3", "unit": "in mm^3"}, {"measurement": "Noradrenalin", "setting": "[3]; [6]", "value": "76.83 ± 30.2", "unit": "µg/L"}, {"measurement": "Number of gastric ulcers", "setting": "[3]; [6]", "value": "7.3 ± 2.6"}, {"measurement": "Adrenalin", "setting": "[3]; [7]", "value": "37.1 ± 14.7", "unit": "µg/L"}, {"measurement": "Duration of activity", "setting": "[3]; [7]", "value": "93.8 ± 32.7", "unit": "s"}, {"measurement": "Duration of immobility", "setting": "[3]; [7]", "value": "504.4 ± 173.4", "unit": "s"}, {"measurement": "Eosinophils (Dunger method) in mm^3", "setting": "[3]; [7]", "value": "281.2 ± 83.1", "unit": "in mm^3"}, {"measurement": "Noradrenalin", "setting": "[3]; [7]", "value": "76.34 ± 18.6", "unit": "µg/L"}, {"measurement": "Number of gastric ulcers", "setting": "[3]; [7]", "value": "10.0 ± 4.8"}]}
{"molecule": "NCCCC(=O)O", "note": "[GABA lithium]", "values": [{"measurement": "LD50, mg/kg in rats", "setting": "[1]", "value": 1800, "unit": "mg/kg"}]}
{"molecule": "[Br-].[Li+]", "note": "[Lithium bromide]", "values": [{"measurement": "LD50, mg/kg in rats", "setting": "[1]", "value": 2200, "unit": "mg/kg"}]}
{"molecule": "[F-].[Li+]", "note": "[Lithium fluoride]", "values": [{"measurement": "LD50, mg/kg in rats", "setting": "[1]", "value": 175, "unit": "mg/kg"}]}
{"molecule": "O=C([O-])CCCO.[Li+]", "note": "[Lithium oxibutirate]", "values": [{"measurement": "LD50, mg/kg in rats", "setting": "[1]", "value": 2200, "unit": "mg/kg"}]}
{"molecule": "O=C1CN=C(c2ccccc2Cl)c2cc(Br)ccc2N1", "note": "[phenazepam]", "values": [{"measurement": "Adrenalin", "setting": "[3]; [4]", "value": "6.8 ± 0.65", "unit": "µg/L"}, {"measurement": "Duration of activity", "setting": "[3]; [4]", "value": "426.7 ± 76.4", "unit": "s"}, {"measurement": "Duration of immobility", "setting": "[3]; [4]", "value": "173.3 ± 22.1", "unit": "s"}, {"measurement": "Eosinophils (Dunger method) in mm^3", "setting": "[3]; [4]", "value": "969.1 ± 42.3", "unit": "in mm^3"}, {"measurement": "Noradrenalin", "setting": "[3]; [4]", "value": "17.6 ± 1.95", "unit": "µg/L"}, {"measurement": "Number of gastric ulcers", "setting": "[3]; [4]", "value": "0.4 ± 0.1"}, {"measurement": "Adrenalin", "setting": "[3]; [6]", "value": "6.2 ± 0.57", "unit": "µg/L"}, {"measurement": "Duration of activity", "setting": "[3]; [6]", "value": "494.8 ± 60.4", "unit": "s"}, {"measurement": "Duration of immobility", "setting": "[3]; [6]", "value": "105.2 ± 20.1", "unit": "s"}, {"measurement": "Eosinophils (Dunger method) in mm^3", "setting": "[3]; [6]", "value": "988.1 ± 42.3", "unit": "in mm^3"}, {"measurement": "Noradrenalin", "setting": "[3]; [6]", "value": "16.2 ± 1.1", "unit": "µg/L"}, {"measurement": "Number of gastric ulcers", "setting": "[3]; [6]", "value": "0.1 ± 0.2"}]}
